Usually IC50 stands for the concentration at which inhibition is half-maximal. Read a high IC50 as weaker potency in that assay.

The assay addresses T1, DGAT1 (Homo sapiens, UniProt O75907).
T1 construct: host or cells: HepG2 cell homogenate (supernatant after sonication and 2000×g centrifugation)
T1 sequence (O75907 1-488): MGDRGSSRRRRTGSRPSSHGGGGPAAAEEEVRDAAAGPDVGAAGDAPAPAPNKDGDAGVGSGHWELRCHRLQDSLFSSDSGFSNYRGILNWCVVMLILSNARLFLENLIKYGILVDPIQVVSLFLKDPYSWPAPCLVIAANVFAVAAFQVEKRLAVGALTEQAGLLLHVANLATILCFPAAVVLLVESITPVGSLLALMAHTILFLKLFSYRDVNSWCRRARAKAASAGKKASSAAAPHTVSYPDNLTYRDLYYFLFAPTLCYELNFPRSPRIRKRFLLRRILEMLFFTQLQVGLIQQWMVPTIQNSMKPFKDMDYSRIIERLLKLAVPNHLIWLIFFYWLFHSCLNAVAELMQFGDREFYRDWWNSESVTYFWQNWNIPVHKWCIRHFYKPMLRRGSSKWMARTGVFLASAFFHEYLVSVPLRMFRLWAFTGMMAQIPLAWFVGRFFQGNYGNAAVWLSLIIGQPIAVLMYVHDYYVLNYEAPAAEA
As to the kind of experiment: Assay for inhibition of DGAT1 activity (IC50), in vitro enzymatic assay using homogenates of HepG2 cell line. It is filed as biochemical. Conditions: inhibitory activity against DGAT1; HepG2 protein (25 μg), 1,2-dioleoyl-sn-glycerol (30 μM), 14C oleoyl coenzyme A (10 μM), room temperature, 60 mins. As for the experimental part: In order to identify DGAT1 inhibitors, in vitro enzymatic assays were performed by using homogenates of HepG2 cell line (ATCC, USA, HB-8065). Briefly stated, HepG2 cells were inoculated in 10% FBS-supplemented medium at 1.0×10^7 cells/well, cultured at 37° C., and harvested 72 hrs later. The harvested cells were lysed by ultrasonic treatment, and centrifuged for at 4° C. (2000×g, 10 mins) to remove any uncracked cells and impurities. The supernatant thus formed was obtained, and stored at −70° C. after its protein contents were quantitatively analyzed.
DGAT1 activation was assayed by a modification of the method described by Coleman (Methods in Enzymology, 1992, 209, 98-102). The compound of the present invention ([…]) was incubated with HepG2 protein (25 μg), MgCl2 (150 mM) and 1,2-dioleoyl-sn-glycerol (30 μM) in a total assay volume of 200 μL in plastic tubes.
The reaction was started by adding ^14C oleoyl coenzyme A (10 μM final concentration) and incubated at room temperature for 60 mins. The reaction was ended when a mixed solution (300 μL) of 2-propanol and heptane (7:1) was added thereto. Radioactive triolein product was separated into the organic phase by adding heptane (200 μL) and 1.0 M carbonate buffer (200 μL, pH 9.5). DGAT1 activity was quantified by counting aliquots of the upper heptane layer by liquid […].

Molecule `COc1cc(NC(=O)Nc2ccc(-c3ncnc4c(-c5ccc(CCC(=O)O)cc5)csc34)cc2)cc(OC)c1OC` [Example 24, 3-(4-(4-(4-(3-(3,4,5-trimethoxyphenyl)ureido)phenyl)thieno[3,2-d]pyrimidin-7-yl)phenyl)propanoic acid] yielded an IC50 below 5 nM.

On to `NC(=O)CCc1ccc(-c2csc3c(-c4ccc(NC(=O)Nc5cccc(Cl)c5)cc4)ncnc23)cc1` [Example 28, 3-(4-(4-(4-(3-(3-chlorophenyl)ureido)phenyl)thieno[3,2-d]pyrimidin-7-yl)phenyl)propanamide], for which the IC50 was below 5 nM.

The values are drawn from patent publication US20140163226A1, “NOVEL PYRIMIDINE DERIVATIVE AND PHARMACEUTICAL COMPOSITION INCLUDING SAME AS AN ACTIVE INGREDIENT” (HANMI PHARMACEUTICAL CO., LTD., priority 2011, published 2014).
